From patent publication US20200345761A1, “PREVENTIVE AND/OR THERAPEUTIC AGENT FOR DEMENTIA” (MITOS CO., LTD., priority 2017, published 2020)

Tests used:
Alzheimer-type dementia = details: cited from earlier work
[1] = tested on: Alzheimer-type dementia patients
Excerpt: Patients were selected on the basis of the following three criteria.
(1) Deterioration in the score occurs such that the ADAS-cog score based on formula [70−(MMSE×2.33)] (J. Caro et al., BMC Neurol 2002; 2:6.) or the ADAS-cog score calculated in terms of MMSE (Mini-Mental State Examination) exceeds 10.
Finally, 11 patients were selected, and treated with H2 gas.
Since the probability of suffering complications increases as the concentration of lithium in blood increases, the dosage of lithium carbonate was reduced (W. S. Waring, Toxicol Rev 2006; 25:221-230.). The patients of the treatment group were given oral administration of a 200 mg tablet of lithium carbonate (Li2CO3) (Mitsubishi Tanabe Pharma Corporation) twice a day and inhalation of 3% H2 twice a day. The test period was 6 months. As the gas containing H2, H2 gas (3%) containing 21% oxygen was generated using a portable H2 generator (Nishijima/Ecore Gas Hydrogen Generator) (H. Ono et al., J Stroke Cerebrovasc Dis 2017; 26:2587-2594.). […] Since lithium carbonate is used as a therapeutic agent for depression and mania (bipolar disorder), and it was reported that patients who ingested lithium carbonate less likely developed dementia, lithium carbonate was used in this Example.
The patients were evaluated by a blind method using the ADAS-cog score.
The ADAS-cog test was conducted every 1 to 2 months. The efficacy of treatment with respect to the ADAS-cog score was determined by comparing the ADAS-cog score at the start of the test with two or three tests during treatment.

dementia patients = details: hydrogen gas about 3 to 4% inhaled 1 hour twice a day, 6-month treatment period, six patients
Excerpt: Patients (outpatients in Iryohojin Shadanshinwakai Nishijima Byoin (Numazu-shi, Shizuoka)) in whom rapid deterioration (deterioration by 3 or more points over 1 year) in a cognitive function test such as MMSE or ADAS-cog occured although existing four agents for dementia were used over a long period of time, and improvement is not attained by other ordinary treatment methods.
Patients for whom it is considered difficult to repeatedly inhale hydrogen gas over a long period of time because of severe medical disease, chronic chest disease (chronic obstructive pulmonary disease (COPD), asthma or the like), mouth inflammation or the like.
Patients for whom it is determined from a score in the ADAS-cog cognitive function test that a therapeutic effect is achieved.

[2] = inhalation of H2 gas (3%) containing 21% oxygen; cited from earlier work
[3] = 11 patients including the unresponsive patient, at completion of H2 treatment

COc1cc2c(cc1OC)C(=O)C(CC1CCN(Cc3ccccc3)CC1)C2 (centres unmarked) [Donepezil]
ADAS-cog score of the administration group (Alzheimer-type dementia; after 6 months): turned back to the initial value | Change of ADAS-cog score (Alzheimer-type dementia; after 6 weeks): −3 points

[HH] [H2, hydrogen gas]
Average change of ADAS-cog score with respect to the initial score [1, 3]: −3.4 | Average change of ADAS-cog score with respect to the worst score [1, 3]: −8.5 | Patients whose ADAS-cog score was improved (decreased) from that at the start time ([1]; at the end of the H2 treatment period, 11 patients): seven | Worst score: B (ADAS-cog), average ([1]; average of 11 patients): 39.2 | Final score: C (ADAS-cog), average ([1]; average of 11 patients at completion of H2 treatment): 30.7 | Patients with improvement in the ADAS-cog score ([1]; combination therapy with H2 and lithium, Alzheimer-type dementia patients): 10 out of 11 | Therapeutic effect judged from ADAS-cog score (effective cases) (dementia patients): effective in all of the six patients | Blood concentration [2]: confirmed to increase

O=C([O-])[O-].[Li+].[Li+] [lithium, lithium carbonate, reference compound]
Cognitive function (ADAS-cog) with lithium used alone ([1]; after H2 treatment was stopped, lithium alone): the cognitive function was not improved
